Reference: US4559326A, “Antiinflammatory compositions and methods” (Pfizer Inc., priority 1985, dated 1985)
Where a name gives a salt, the structure may show the parent alone.

System: Gastric lesions induced by the ethanolamine salt of piroxicam
Assay: Protective effect of inositol on piroxicam-induced gastric lesions in rats
Assay type: in vivo, rat (CD strain, Sprague-Dawley)
Details: for Lesions/Rat (X +/- SE): mean (SE); for Significance p < 0.05: two-tailed Student's t-test
Method: Adult male "specific pathogen free" rats weighing 140-160 grams of the CD strain (Sprague-Dawley) were obtained from Charles River Breeding Laboratories (Kingston, N.Y.). The animals were acclimated for approximately one week and tested when they reached a body weight of 200-225 grams. The rats were fasted for 16 hours and randomized into groups consisting of 8 to 20 animals which were normalized with regard to their average body weight.
Gastric ulcers were induced in the animals by orally dosing them with a single 120 mg/kg dose of piroxicam (ethanolamine salt) in 2 ml. of aqueous 0.1% methylcellulose (pH=6.8). Those animals receiving a second medicinal agent separately received the second drug in an additional 2 ml. of the same medium at about the same time. Six and one-half hours later, the animals were sacrificed by cervical dislocation and autopsied. The stomachs were surgically removed, dissected along the greater curvature and rinsed with cold water. The stomachs were individually scored for both linear and punctate lesions. The total number of lesions was used for scoring purposes. The data obtained from each group of rats were analyzed after calculation of the mean number +/- the standard error of total gastric lesions. The values obtained were also compared to the controls which received only piroxicam by the two-tailed Student's T-Test for nonpaired data.

Row | SMILES | Lesions/Rat (X +/- SE) (control: 120 mg/kg oral piroxicam ethanolamine salt alone, inositol 0 mg/kg, 6.5 h, 30 rats) | ED50 (Rattus norvegicus, 6.5 h, oral, linear regression analysis, lesions induced by 120 mg/kg piroxicam ethanolamine salt, read-out: ED50 (dose of inositol required to inhibit 50% of control gastric lesion)) [mg/kg] | Reduction of piroxicam-induced gastric lesions (healthy fasted rat, statement in words) | Significance p < 0.05 (inositol 10 mg/kg oral vs piroxicam-only control) | Lesions/Rat (X +/- SE) (inositol 10 mg/kg oral, with 120 mg/kg oral piroxicam ethanolamine salt, fasted male rats, 6.5 h, 40 rats) | Significance p < 0.05 (inositol 33 mg/kg oral vs piroxicam-only control) | Lesions/Rat (X +/- SE) (inositol 33 mg/kg oral, with 120 mg/kg oral piroxicam ethanolamine salt, fasted male rats, 6.5 h, 40 rats) | Significance p < 0.05 (inositol 100 mg/kg oral vs piroxicam-only control) | Lesions/Rat (X +/- SE) (inositol 100 mg/kg oral, with 120 mg/kg oral piroxicam ethanolamine salt, fasted male rats, 6.5 h, 40 rats) | Significance p < 0.05 (inositol 333 mg/kg oral vs piroxicam-only control) | Lesions/Rat (X +/- SE) (inositol 333 mg/kg oral, with 120 mg/kg oral piroxicam ethanolamine salt, fasted male rats, 6.5 h, 40 rats)
1 | CN1C(C(=O)Nc2ccccn2)=C(O)c2ccccc2S1(=O)=O [ethanolamine salt of piroxicam] | 7.5 (0.8) Lesions/Rat |  |  |  |  |  |  |  |  |  | 
2 | O[C@H]1[C@H](O)[C@@H](O)[C@H](O)[C@@H](O)[C@H]1O [Inositol, cis-1,2,3,4-trans-4,6-cyclohexanehexol] |  | 85 | significantly reduces | + (p < 0.05) | 4.7 (0.9) Lesions/Rat | + (p < 0.05) | 5.2 (0.7) Lesions/Rat | + (p < 0.05) | 3.6 (0.6) Lesions/Rat | + (p < 0.05) | 3.0 (0.8) Lesions/Rat
